The results in this text go back to publication PMC9276531, “Hyaluronic acid–GPRC5C signalling promotes dormancy in haematopoietic stem cells” (Nature Cell Biology, 2022).

Each structure is given as a SMILES string.

Assay type in all cases: cell-based
The target in assay [1] is T1, GPRC5C (Homo sapiens, UniProt Q9NQ84).
T1 construct: GPRC5C-Tango plasmid, N-terminal Flag, PRESTO-Tango reporter fusion; transfected in HTLA or HEK293T cells
As to the kind of experiment: PRESTO-Tango beta-arrestin recruitment, luciferase. The note with it: HTLA cells, 24 h, HEPES/HBSS pH 7.4.

Assay [2] addresses T2, GPRC5C (Homo sapiens, UniProt Q9NQ84, N41L, form not given).
T2 construct: GPRC5C-Tango plasmid, N-terminal Flag, PRESTO-Tango reporter fusion; transfected in HTLA or HEK293T cells
As to the kind of experiment: PRESTO-Tango beta-arrestin recruitment, luciferase. The settings on record: HTLA cells, putative N-glycosylation site mutant. For orientation: Activated receptors often draw arrestin, which recruitment assays turn into a signal.

In assay [3] the target is T1, GPRC5C. As to the kind of experiment: competition with HA-fluorescein on transfected HEK293T cells, flow cytometry. The note with it: 100 uM NAG, 8 ug HA-fluorescein, 60 min, room temperature. Background: A flow cytometer gives signals particle by particle.

T1 sequence (Q9NQ84 24-441): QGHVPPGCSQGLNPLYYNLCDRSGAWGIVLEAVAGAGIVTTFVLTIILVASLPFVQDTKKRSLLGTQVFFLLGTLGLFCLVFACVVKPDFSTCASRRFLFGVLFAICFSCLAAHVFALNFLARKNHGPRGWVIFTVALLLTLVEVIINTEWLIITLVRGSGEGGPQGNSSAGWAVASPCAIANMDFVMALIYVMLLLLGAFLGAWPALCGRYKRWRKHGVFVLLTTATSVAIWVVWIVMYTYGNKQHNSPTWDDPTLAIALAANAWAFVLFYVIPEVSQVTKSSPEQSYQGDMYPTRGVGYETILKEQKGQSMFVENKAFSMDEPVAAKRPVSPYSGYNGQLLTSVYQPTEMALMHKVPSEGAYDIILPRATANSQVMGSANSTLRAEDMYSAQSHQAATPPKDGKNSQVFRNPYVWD
T2 sequence (Q9NQ84 12-429 N41L): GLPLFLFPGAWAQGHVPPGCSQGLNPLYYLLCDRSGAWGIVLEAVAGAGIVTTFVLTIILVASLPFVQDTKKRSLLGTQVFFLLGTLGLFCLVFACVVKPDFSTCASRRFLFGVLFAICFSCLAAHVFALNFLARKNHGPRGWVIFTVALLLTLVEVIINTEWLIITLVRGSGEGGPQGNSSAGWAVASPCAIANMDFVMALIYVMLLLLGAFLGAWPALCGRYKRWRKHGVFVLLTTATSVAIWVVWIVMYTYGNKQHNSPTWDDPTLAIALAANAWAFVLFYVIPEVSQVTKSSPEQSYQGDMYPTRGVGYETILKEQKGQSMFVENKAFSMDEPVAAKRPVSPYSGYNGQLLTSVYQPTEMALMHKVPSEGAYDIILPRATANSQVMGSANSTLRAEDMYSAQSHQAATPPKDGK

Take `CC(=O)N[C@H]1C(O)O[C@H](CO)[C@@H](O)[C@@H]1O` (stereo partly drawn) [NAG, N-acetyl-D-glucosamine]: the “concentration-response (agonist)” value on GPRC5C [1] is “HA and NAG treatments led to a dose-dependent response”; on GPRC5C [2], “dampened the luciferase response that was previously elicited by treatment with HA and NAG”. For the same compound, the “competition with HA-fluorescein on transfected HEK293T cells, flow cytometry” value on GPRC5C [3] was “HA interaction with GPRC5C was reduced when NAG was present”.
